Data on one compound can be found in patent publication US6962941B2, “Tryptase inhibitors” (Altana Pharma AG, priority 2001, dated 2005).

In the assay the target is human tryptase. Nature of the assay: Inhibition of human tryptase (apparent dissociation constant, tos-Gly-Pro-Arg-pNA cleavage). As to conditions: pKiapp = -log Kiapp (mol/l), in the presence of substrate, heparin 0.1-50 μg/ml. Format: biochemical. The text has this:
The documented pathophysiological effects of mast cell tryptase are brought about directly by the enzymatic activity of the protease. Accordingly, they are reduced or blocked by inhibitors which inhibit the enzymatic activity of tryptase. A suitable measure of the affinity of a reversible inhibitor for the target protease is the equilibrium dissociation constant Ki of the enzyme/inhibitor complex. This value of Ki can be determined via the influence of the inhibitor on the tryptase-induced cleavage of a chromogenic peptide-p-nitroanilide substrate or of a fluorogenic peptide-aminomethylcoumarin substrate.
The dissociation constants for the tryptase/inhibitor complexes are determined under equilibrium conditions in accordance with the general proposals of Bieth (Bieth J. G., Pathophysiological Interpretation of kinetic constants of protease inhibitors, Bull. Europ. Physiopath. Resp. 16:183-195, 1980) and the methods of Sommerhoff et al. (Sommerhoff C. P. et al., A Kazal-type inhibitor of human mast cell tryptase: Isolation from the medical leech Hirudo medicinalis, characterization, and sequence analysis, Biol. Chem. Hoppe-Seyler 375: 685-694, 1994).
Human tryptase is prepared pure from lung tissue or is prepared by recombination; the specific activity of the protease which has been determined by titration is normally more than 85% of the theoretical value. […]

On to `COC(=O)C1CC(NC(=O)OCC#CCOC(=O)NC2CC(C(=O)OC)N(C(=O)CCc3cccc(CN)c3)C2)CN1C(=O)CCc1cccc(CN)c1.Cl.Cl` (stereo not shown) [Compound 1, 1,4-Bis-{N-[3-(3-aminomethylphenylproplonyl)-2-methoxycarbonylpyrrolidin-4-yl]aminocarbonyloxy}-2-butyne dihydrochloride], for which the pKiapp was found to be 8.35.
